Tests used:
[1] = target: Serine/threonine-protein kinase 26 (Homo sapiens) (UniProt Q9P289)
[2] = target: 5'-AMP-activated protein kinase catalytic subunit alpha-2 (Homo sapiens) (UniProt P54646)
[3] = target: Serine/threonine-protein kinase 38 (Homo sapiens) (UniProt Q15208)
[4] = target: Casein kinase I isoform gamma-1 (Homo sapiens) (UniProt Q9HCP0)
[5] = target: Serine/threonine-protein kinase 26 (Homo sapiens) (UniProt Q9P289); remark: listed apart in the source
[6] = target: T1, Serine/threonine-protein kinase Nek2 (Homo sapiens) (UniProt P51955)
T1 sequence (whole entry): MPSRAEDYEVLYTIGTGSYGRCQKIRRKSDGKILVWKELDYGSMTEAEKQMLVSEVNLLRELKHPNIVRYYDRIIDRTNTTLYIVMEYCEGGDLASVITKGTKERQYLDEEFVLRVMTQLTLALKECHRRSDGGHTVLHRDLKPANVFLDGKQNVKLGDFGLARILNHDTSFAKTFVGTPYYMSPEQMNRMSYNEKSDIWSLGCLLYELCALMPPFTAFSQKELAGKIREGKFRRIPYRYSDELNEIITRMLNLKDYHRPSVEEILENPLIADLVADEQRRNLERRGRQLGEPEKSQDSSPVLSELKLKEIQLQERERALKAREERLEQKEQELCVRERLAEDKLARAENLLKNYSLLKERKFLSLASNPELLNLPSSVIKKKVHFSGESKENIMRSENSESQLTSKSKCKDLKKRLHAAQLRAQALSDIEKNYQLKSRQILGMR

[7] = target: Death-associated protein kinase 3 (Homo sapiens) (UniProt O43293)
Sequence of Death-associated protein kinase 3 (Homo sapiens) (O43293 whole entry, looked up): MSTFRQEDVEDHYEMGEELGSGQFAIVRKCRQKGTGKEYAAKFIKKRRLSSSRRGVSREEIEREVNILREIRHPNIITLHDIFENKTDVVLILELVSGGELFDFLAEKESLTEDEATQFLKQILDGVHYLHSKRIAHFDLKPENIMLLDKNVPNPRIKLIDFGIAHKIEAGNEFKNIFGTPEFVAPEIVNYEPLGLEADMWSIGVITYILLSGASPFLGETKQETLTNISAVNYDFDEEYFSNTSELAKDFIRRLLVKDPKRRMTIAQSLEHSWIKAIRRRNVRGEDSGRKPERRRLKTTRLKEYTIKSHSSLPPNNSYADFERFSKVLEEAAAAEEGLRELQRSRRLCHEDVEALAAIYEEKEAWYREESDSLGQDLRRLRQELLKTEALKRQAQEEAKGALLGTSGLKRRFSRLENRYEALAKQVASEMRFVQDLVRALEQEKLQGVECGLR

[8] = target: T2, Serine/threonine-protein kinase PLK4 (Homo sapiens) (UniProt O00444)
T2 sequence (whole entry): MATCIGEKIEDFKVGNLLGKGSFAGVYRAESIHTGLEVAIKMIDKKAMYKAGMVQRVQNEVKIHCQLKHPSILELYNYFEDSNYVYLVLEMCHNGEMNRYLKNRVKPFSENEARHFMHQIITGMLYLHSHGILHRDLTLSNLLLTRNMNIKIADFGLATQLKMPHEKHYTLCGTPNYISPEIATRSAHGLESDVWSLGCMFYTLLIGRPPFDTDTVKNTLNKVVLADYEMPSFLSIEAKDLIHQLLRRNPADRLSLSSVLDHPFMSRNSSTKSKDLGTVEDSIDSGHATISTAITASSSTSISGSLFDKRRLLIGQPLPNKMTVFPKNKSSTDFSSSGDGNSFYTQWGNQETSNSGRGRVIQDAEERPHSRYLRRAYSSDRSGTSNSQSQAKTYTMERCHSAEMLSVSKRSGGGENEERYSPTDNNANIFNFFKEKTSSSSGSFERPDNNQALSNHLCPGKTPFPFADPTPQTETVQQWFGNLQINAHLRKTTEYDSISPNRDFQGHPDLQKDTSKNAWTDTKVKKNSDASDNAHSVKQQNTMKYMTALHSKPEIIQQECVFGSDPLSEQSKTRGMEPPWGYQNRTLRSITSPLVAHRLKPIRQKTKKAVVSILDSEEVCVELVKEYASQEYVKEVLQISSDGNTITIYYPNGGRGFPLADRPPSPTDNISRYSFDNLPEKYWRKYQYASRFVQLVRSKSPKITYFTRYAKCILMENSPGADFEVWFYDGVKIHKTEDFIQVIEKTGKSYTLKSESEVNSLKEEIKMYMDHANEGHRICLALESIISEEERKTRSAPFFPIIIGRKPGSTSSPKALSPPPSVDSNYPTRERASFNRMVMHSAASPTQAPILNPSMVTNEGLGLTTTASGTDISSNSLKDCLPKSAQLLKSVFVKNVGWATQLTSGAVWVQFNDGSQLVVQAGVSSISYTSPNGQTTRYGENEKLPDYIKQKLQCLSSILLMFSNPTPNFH

[9] = target: Serine/threonine-protein kinase PAK 6 (Homo sapiens) (UniProt Q9NQU5)
Sequence of Serine/threonine-protein kinase PAK 6 (Homo sapiens) (Q9NQU5 whole entry, looked up): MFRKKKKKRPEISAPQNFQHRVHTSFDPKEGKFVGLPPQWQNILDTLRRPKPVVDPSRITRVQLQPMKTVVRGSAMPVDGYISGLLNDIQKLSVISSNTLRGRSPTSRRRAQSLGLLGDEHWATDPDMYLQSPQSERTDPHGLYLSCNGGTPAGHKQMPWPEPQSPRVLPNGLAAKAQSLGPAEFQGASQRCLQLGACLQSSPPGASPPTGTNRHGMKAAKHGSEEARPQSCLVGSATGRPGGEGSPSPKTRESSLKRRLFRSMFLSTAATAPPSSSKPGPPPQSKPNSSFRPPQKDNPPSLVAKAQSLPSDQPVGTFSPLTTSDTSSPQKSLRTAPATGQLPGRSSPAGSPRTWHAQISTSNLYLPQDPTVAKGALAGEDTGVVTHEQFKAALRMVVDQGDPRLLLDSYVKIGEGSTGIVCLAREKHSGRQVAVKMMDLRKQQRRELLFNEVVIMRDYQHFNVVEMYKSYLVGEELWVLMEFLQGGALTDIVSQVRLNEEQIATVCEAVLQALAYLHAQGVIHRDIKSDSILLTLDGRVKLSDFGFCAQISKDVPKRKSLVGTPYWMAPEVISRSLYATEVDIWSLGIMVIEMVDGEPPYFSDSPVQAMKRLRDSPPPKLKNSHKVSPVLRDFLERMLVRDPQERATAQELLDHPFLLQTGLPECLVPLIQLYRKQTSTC

[10] = target: Dual specificity protein kinase CLK3 (Homo sapiens) (UniProt P49761)
Sequence of Dual specificity protein kinase CLK3 (Homo sapiens) (P49761 whole entry, looked up): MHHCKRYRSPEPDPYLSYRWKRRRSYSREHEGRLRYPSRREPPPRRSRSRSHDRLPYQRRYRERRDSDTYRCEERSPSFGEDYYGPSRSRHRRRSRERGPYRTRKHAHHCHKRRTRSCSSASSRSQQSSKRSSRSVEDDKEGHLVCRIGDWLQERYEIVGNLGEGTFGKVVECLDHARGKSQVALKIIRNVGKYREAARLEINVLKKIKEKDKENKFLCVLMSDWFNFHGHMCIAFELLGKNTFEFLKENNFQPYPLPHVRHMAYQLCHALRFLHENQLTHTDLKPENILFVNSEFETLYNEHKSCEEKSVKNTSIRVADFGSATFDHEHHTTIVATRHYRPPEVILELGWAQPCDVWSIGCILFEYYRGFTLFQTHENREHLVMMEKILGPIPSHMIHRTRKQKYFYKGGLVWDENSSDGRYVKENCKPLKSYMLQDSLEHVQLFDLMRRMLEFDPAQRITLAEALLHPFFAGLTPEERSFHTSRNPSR

[11] = target: cAMP-dependent protein kinase catalytic subunit alpha (Homo sapiens) (UniProt P17612)
[12] = target: T3, Serine/threonine-protein kinase VRK3 (Homo sapiens) (UniProt Q8IV63)
T3 sequence (whole entry): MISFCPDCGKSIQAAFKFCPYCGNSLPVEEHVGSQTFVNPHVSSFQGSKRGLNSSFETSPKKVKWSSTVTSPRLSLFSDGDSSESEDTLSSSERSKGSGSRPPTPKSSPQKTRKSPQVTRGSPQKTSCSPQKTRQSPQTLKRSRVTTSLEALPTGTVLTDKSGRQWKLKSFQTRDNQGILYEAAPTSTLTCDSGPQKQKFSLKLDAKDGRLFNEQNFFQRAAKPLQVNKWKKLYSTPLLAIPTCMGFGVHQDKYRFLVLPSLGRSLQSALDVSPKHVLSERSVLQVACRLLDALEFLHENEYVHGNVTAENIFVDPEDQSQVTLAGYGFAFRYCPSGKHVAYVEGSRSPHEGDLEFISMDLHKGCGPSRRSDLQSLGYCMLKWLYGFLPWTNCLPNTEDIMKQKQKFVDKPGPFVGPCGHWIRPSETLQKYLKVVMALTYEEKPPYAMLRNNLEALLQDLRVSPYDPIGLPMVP

[13] = target: Cyclin-dependent kinase 2 (Homo sapiens, UniProt P24941)
[14] = target: T4, Serine/threonine-protein kinase 17A (Homo sapiens) (UniProt Q9UEE5)
T4 sequence (whole entry): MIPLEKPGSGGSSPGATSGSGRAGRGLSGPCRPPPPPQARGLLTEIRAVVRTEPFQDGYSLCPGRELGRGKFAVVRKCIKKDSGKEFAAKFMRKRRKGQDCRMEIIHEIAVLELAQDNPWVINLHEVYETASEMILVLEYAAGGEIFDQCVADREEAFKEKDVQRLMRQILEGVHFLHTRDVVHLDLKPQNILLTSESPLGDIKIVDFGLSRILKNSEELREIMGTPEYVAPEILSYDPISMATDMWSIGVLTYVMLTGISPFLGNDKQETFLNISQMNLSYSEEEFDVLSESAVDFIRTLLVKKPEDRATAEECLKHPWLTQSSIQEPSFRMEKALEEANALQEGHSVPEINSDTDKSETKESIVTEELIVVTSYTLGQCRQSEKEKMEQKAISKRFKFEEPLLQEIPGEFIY

Sequence of Serine/threonine-protein kinase 38 (Homo sapiens) (Q15208 2-465 limits assumed): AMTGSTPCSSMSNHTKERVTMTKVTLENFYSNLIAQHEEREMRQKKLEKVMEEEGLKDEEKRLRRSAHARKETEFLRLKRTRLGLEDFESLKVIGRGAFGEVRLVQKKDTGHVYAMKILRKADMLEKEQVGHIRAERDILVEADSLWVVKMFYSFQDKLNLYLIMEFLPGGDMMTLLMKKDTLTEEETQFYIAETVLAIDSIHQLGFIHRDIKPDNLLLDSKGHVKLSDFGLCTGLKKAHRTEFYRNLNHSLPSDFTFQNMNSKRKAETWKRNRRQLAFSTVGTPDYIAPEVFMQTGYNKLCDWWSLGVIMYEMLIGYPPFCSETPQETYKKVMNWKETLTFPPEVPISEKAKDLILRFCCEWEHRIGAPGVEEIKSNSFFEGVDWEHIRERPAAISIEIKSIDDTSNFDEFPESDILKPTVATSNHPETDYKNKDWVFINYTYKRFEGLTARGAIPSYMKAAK
Sequence of 5'-AMP-activated protein kinase catalytic subunit alpha-2 (Homo sapiens) (P54646 whole entry, looked up): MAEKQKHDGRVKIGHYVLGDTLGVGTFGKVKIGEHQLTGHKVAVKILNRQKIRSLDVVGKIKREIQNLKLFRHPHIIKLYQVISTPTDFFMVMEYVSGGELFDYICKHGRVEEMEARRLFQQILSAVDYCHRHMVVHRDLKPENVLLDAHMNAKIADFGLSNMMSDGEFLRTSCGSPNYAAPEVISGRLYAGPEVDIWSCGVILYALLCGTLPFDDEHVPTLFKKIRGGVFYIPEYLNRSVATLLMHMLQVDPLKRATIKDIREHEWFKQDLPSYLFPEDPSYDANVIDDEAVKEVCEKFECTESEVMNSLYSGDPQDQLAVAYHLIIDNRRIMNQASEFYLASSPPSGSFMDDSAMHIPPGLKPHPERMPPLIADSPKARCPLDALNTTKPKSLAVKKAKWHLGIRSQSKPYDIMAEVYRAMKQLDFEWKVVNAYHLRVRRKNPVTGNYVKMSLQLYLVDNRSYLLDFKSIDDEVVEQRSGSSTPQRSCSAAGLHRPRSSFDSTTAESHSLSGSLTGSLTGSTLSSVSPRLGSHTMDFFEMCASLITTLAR
Sequence of Serine/threonine-protein kinase 26 (Homo sapiens) (Q9P289 2-416 limits assumed): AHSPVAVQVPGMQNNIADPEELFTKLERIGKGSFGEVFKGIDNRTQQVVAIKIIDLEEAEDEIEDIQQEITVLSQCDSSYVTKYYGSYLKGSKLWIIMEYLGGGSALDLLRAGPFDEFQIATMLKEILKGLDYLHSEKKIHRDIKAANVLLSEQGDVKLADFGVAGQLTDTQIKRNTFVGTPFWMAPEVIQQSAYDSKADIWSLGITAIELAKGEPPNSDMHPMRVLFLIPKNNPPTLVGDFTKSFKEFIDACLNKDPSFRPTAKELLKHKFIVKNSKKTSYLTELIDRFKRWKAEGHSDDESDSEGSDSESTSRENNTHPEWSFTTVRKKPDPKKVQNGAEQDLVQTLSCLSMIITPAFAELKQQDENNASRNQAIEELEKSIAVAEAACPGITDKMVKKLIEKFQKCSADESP
Sequence of Casein kinase I isoform gamma-1 (Homo sapiens) (Q9HCP0 whole entry, looked up, canonical isoform): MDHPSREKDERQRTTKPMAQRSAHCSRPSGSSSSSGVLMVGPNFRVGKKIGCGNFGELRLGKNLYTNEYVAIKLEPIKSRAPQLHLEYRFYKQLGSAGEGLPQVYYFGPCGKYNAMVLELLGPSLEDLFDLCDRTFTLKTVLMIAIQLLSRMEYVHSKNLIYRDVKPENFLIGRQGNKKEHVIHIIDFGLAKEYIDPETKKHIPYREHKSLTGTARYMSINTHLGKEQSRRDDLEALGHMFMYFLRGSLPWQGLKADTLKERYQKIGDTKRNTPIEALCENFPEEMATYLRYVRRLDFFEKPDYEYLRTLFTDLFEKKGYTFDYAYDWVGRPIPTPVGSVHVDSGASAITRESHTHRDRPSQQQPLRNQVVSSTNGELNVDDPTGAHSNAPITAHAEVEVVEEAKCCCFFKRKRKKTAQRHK

| SMILES | ΔTm [1] | ΔTm [2] | ΔTm [3] | ΔTm [4] | ΔTm [5] | ΔTm [6] | ΔTm [7] | ΔTm [8] | ΔTm [9] | ΔTm [10] | ΔTm [11] | ΔTm [12] | ΔTm [13] | ΔTm [14] |
| --- | --- | --- | --- | --- | --- | --- | --- | --- | --- | --- | --- | --- | --- | --- |
| Cc1c2ccncc2c(C)c2c1[nH]c1ccccc12 [ELLIPTECINE] | 0.4 °C | 1.8 °C | 1.1 °C | 0.6 °C | 4.6 °C | 0.5 °C | 4.3 °C | 3.3 °C | -0.5 °C | 4.2 °C | 5.9 °C | 1.3 °C | 1.6 °C | 0.8 °C |
| CCOC(=O)c1c(C)[nH]c(/C=C2\C(=O)Nc3ccccc32)c1C | 0.1 °C | 0.5 °C | -0.1 °C | -11.4 °C | -0.7 °C | 0.5 °C | 0 °C | 2.3 °C | -0.5 °C | -0.1 °C | -1.6 °C | -2.2 °C | -3.4 °C | 4.5 °C |
| NC1=N/C(=C2/CCNC(=O)c3[nH]ccc32)C(=O)N1 [DEBROMOHYMENIALDISINE] | 1.3 °C | -0.5 °C | 0.7 °C | 3.6 °C | 0.7 °C | 1.1 °C | 5.2 °C | 0.9 °C | 0.1 °C | 4.5 °C | 0 °C | 0.5 °C | 0.7 °C | 10.2 °C |
| O=C1Nc2ccc(S(=O)(=O)O)cc2/C1=C1/Nc2ccccc2/C1=N\O | 1.2 °C | 5.5 °C | 1.9 °C | 4 °C | 0.5 °C | 3.5 °C | 6.4 °C | 10.4 °C | 3.2 °C | 3.5 °C | 1.2 °C | 1.9 °C | 8.1 °C | 9.8 °C |
| CCOC(=O)c1cnc2oc3ccc(O)cc3c2c1-c1ccccc1 | -0.2 °C | 0 °C | 0.2 °C | 1.2 °C | 0 °C | 0.9 °C | 0.8 °C | 2.8 °C | 0.3 °C | 1 °C | 1.3 °C | -0.6 °C | 1 °C | 2 °C |
| O=c1c(O)c(-c2ccc(O)c(O)c2)oc2cc(O)cc(O)c12 [QUERCETIN] | 4.4 °C | 2.3 °C | 3.2 °C | 3.2 °C | 8.1 °C | 3.4 °C | 7.5 °C | 7.4 °C | 1.1 °C | 5.4 °C | 4.2 °C | -0.2 °C | 5.3 °C | 9.3 °C |
| COc1cc(O)c2c(c1)oc(=O)c1c3cc(O)c(O)cc3oc21 [WEDELOLACTONE] | 1.4 °C | -0.8 °C | 0.5 °C | 1 °C | 3.2 °C | 2 °C | 0 °C | 2.9 °C | -0.6 °C | 2.1 °C | 2.3 °C | -1 °C | -4.5 °C | 3 °C |
| COc1ccc(S(=O)(=O)N(CCO)c2ccccc2CN(C)C/C=C/c2ccc(Cl)cc2)cc1 | 0.1 °C | -1 °C | -0.2 °C | 0.1 °C | -0.1 °C | -0.1 °C | 0.2 °C | 1 °C | -0.8 °C | -0.3 °C | -4.1 °C | -0.6 °C | 0 °C | 0.1 °C |
| O=c1cc(N2CCOCC2)oc2c1ccc1ccccc12 | 0.5 °C | 0.4 °C | 0.1 °C | 0.4 °C | 0.2 °C | 0.6 °C | 1.8 °C | 0.2 °C | -0.3 °C | 0.1 °C | 0.2 °C | 1 °C | 0.5 °C | 0.6 °C |
| C[S+]([O-])c1ccc(-c2nc(-c3ccc(F)cc3)c(-c3ccncc3)[nH]2)cc1 (stereo unspecified) [SB-203580] | -0.5 °C | -0.9 °C | 0.2 °C | 0.8 °C | -0.4 °C | 0.3 °C | -0.4 °C | 0.7 °C | 0 °C | -0.1 °C | 0 °C | 0 °C | -0.1 °C | 0 °C |
| O=C(O)c1cc(N(Cc2ccccc2O)Cc2cc(O)ccc2O)ccc1O [LAVENDUSTIN A] | 2.1 °C | -1.1 °C | 0.2 °C | 1.4 °C | 0.4 °C | 1.3 °C | 0.8 °C | 1.1 °C | -0.3 °C | 0.3 °C | 1.2 °C | 0.7 °C | 1.3 °C | 0.1 °C |
| COc1cc(OC)c(/C=C2\C(=O)Nc3ccccc32)c(OC)c1 | 0 °C | -0.1 °C | 0.2 °C | 0.5 °C | 0 °C | 0.4 °C | -0.3 °C | 0.3 °C | 0 °C | 0 °C | 0.4 °C | 0.7 °C | 0.5 °C | -0.3 °C |
| N#C/C(=C(/N)Sc1ccc(N)cc1)c1ccccc1C(F)(F)F | 1.1 °C | -0.8 °C | 0.4 °C | 0.5 °C | 1 °C | 1.3 °C | -0.2 °C | 0.1 °C | 0.4 °C | 0 °C | 0.7 °C | 0.5 °C | 0.4 °C | 0.4 °C |
| C=CNC#N | -1.4 °C | -0.7 °C | 0.7 °C | 0.7 °C | 1.5 °C | 2.1 °C | -0.2 °C | 0.1 °C | 0.5 °C | 0.2 °C | 1.6 °C | 0.9 °C | -0.2 °C | 0.7 °C |

Source: ChEMBL document CHEMBL1145498, “A systematic interaction map of validated kinase inhibitors with Ser/Thr kinases” (Proc Natl Acad Sci U S A, 2007)
